Assays:
Assay in all cases: relative viability (nuclei count vs DMSO), 5 days (fraction); higher = more cells survive
Bleomycin = compound: CC1=C(N=C(N=C1N)[C@H](CC(=O)N)NC[C@@H](C(=O)N)N)C(=O)N[C@@H]([C@H](C2=CN=CN2)OC3C(C(C(C(O3)CO)O)O)OC4C(C(C(C(O4)CO)O)OC(=O)N)O)C(=O)N[C@H](C)[C@H]([C@H](C)C(=O)N[C@@H]([C@@H](C)O)C(=O)NCCC5=NC(=CS5)C6=NC(=CS6)C(=O)NCCC[S+](C)C)O [Bleomycin]; settings: main component drawn
How it was run: (§1)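 Lung cancer cell lines in 1536-well plates were exposed by pinning to five library-drug doses (not always all listed) √10 apart, following an overnight hold at 37 °C. MetaXpress counted Hoechst-stained nuclei from 4× images taken after 5 days without medium change. Viability is the median ratio of treated-well to vehicle-well nuclei across plates. Plates required control CV below 25% and at least one doubling.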

Etoposide = compound: COc1cc([C@@H]2c3cc4c(cc3[C@@H](O[C@@H]3O[C@@H]5CO[C@@H](C)O[C@H]5[C@H](O)[C@H]3O)[C@H]3COC(=O)[C@H]23)OCO4)cc(OC)c1O [Etoposide]
How it was run: as §1

Etoposide + Bortezomib = compound: COc1cc([C@@H]2c3cc4c(cc3[C@@H](O[C@@H]3O[C@@H]5CO[C@@H](C)O[C@H]5[C@H](O)[C@H]3O)[C@H]3COC(=O)[C@H]23)OCO4)cc(OC)c1O [Etoposide] + CC(C)C[C@H](NC(=O)[C@H](Cc1ccccc1)NC(=O)c1cnccn1)B(O)O [Bortezomib] (partner 0.002 µM)
How it was run: (§2)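 Dosing by pin tool came one day after lung cancer cell lines were seeded in 1536-well plates, using either one drug or a fixed anchor-drug dose plus five library-drug doses (not always all listed) in √10 steps. After 5 days, nuclei were counted on 4× images. Relative viability is treated-well nuclei count divided by vehicle-well nuclei count, and values are medians of duplicate plates.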

Bleomycin + Alpelisib = compound: CC1=C(N=C(N=C1N)[C@H](CC(=O)N)NC[C@@H](C(=O)N)N)C(=O)N[C@@H]([C@H](C2=CN=CN2)OC3C(C(C(C(O3)CO)O)O)OC4C(C(C(C(O4)CO)O)OC(=O)N)O)C(=O)N[C@H](C)[C@H]([C@H](C)C(=O)N[C@@H]([C@@H](C)O)C(=O)NCCC5=NC(=CS5)C6=NC(=CS6)C(=O)NCCC[S+](C)C)O [Bleomycin] + Cc1nc(NC(=O)N2CCC[C@H]2C(N)=O)sc1-c1ccnc(C(C)(C)C(F)(F)F)c1 [Alpelisib] (partner 2 µM); settings: main component drawn
How it was run: as §2

Cell Line	relative viability (Bleomycin; 0.01 µM)	relative viability (Bleomycin; 0.03162 µM)	relative viability (Bleomycin; 0.1 µM)	relative viability (Bleomycin; 0.3162 µM)	relative viability (Bleomycin; 1 µM)	relative viability (Etoposide; 0.01 µM)	relative viability (Etoposide; 0.03162 µM)	relative viability (Etoposide; 0.1 µM)	relative viability (Etoposide; 0.3162 µM)	relative viability (Etoposide; 1 µM)	relative viability (Etoposide + Bortezomib; first compound 0.01 µM)	relative viability (Etoposide + Bortezomib; first compound 0.03162 µM)	relative viability (Etoposide + Bortezomib; first compound 0.1 µM)	relative viability (Etoposide + Bortezomib; first compound 0.3162 µM)	relative viability (Etoposide + Bortezomib; first compound 1 µM)	relative viability (Bleomycin + Alpelisib; first compound 0.01 µM)	relative viability (Bleomycin + Alpelisib; first compound 0.03162 µM)	relative viability (Bleomycin + Alpelisib; first compound 0.1 µM)	relative viability (Bleomycin + Alpelisib; first compound 0.3162 µM)	relative viability (Bleomycin + Alpelisib; first compound 1 µM)
NCI-H1651	0.865	0.825	0.711	0.456	0.254	0.976	0.997	0.792	0.485	0.199	0.914	0.979	0.875	0.532	0.181	0.708	0.71	0.733	0.236	0.174
NCI-H1703	0.928	0.895	0.826	0.381	0.272	0.761	1.03	0.75	0.711	0.371	0.433	0.519	0.294	0.22	0.198	0.32	0.295	0.278	0.173	0.196
Calu-6	0.77	0.784	0.495	0.205	0.174	0.938	0.985	1.05	0.684	0.365	1.06	0.973	1.03	0.693	0.405	0.63	0.603	0.333	0.181	0.177
EBC-1	0.893	0.951	0.905	0.836	0.602	0.977	1.06	0.714	0.872	0.562	0.528	0.503	0.55	0.581	0.379	0.777	0.718	0.696	0.501	0.404
A-427	0.795	0.811	0.748	0.326	0.2	0.968	1.12	0.699	0.612	0.237	0.92	1.02	0.726	0.819	0.244	0.983	1.05	1.05	0.48	0.203
NCI-H2405	0.884	0.969	0.918	0.569	0.394	1.04	1.09	0.772	0.835	0.47	0.987	1.05	0.753	0.531	0.746	0.648	0.704	0.615	0.312	0.306
NCI-H1355	0.935	1.02	0.979	0.482	0.297	0.947	1.08	0.535	0.713	0.33	1.15	1.35	0.671	1.13	0.412	0.777	0.935	0.802	0.566	0.323
RERF-LC-KJ	0.694	0.675	0.591	0.308	0.271	0.846	1.06	0.861	0.873	0.653	1.04	1.2	0.986	1.03	0.923	0.58	0.589	0.53	0.253	0.266
NCI-H23	0.458	0.439	0.304	0.218	0.161	1.02	1.03	0.671	0.371	0.212	0.919	1.15	0.516	0.317	0.215	0.327	0.298	0.192	0.127	0.122
HOP-62	0.47	0.473	0.257	0.183	0.107	1.06	1.11	0.824	0.712	0.372	0.644	0.901	0.298	0.412	0.328	0.412	0.458	0.185	0.116	0.13
HARA	0.804	0.769	0.842	0.506	0.537	0.856	1.18	0.979	0.849	0.348	1.04	1.29	1.11	0.995	0.235	0.682	0.784	0.818	0.415	0.373
PC-14	0.656	0.612	0.286	0.097	0.057	0.996	1.08	0.933	0.782	0.441	0.9	1.08	0.918	0.687	0.666	0.626	0.534	0.303	0.0745	0.067
NCI-H1755	0.94	1	0.96	0.813	0.673	0.998	1.05	0.963	0.935	0.829	0.995	1.02	0.887	0.9	0.969	0.939	0.93	0.906	0.658	0.58
HCC-78	0.788	0.994	0.883	0.564	0.642	0.942	1.09	0.687	0.515	0.273	0.487	0.5	0.35	0.314	0.229	0.287	0.266	0.285	0.222	0.174
IA-LM	0.873	0.852	0.839	0.347	0.356	0.88	0.946	0.742	0.875	0.655	0.821	0.929	0.466	0.837	0.522	0.514	0.614	0.565	0.372	0.246
NCI-H441	0.626	0.922	0.862	0.651	0.42	0.923	1.03	0.751	0.308	0.172	0.457	0.469	0.447	0.286	0.177	–	0.699	0.645	0.444	0.279
NCI-H322M	0.861	1.02	0.928	0.568	0.54	0.947	1.05	0.822	0.838	0.52	1.27	1.22	0.994	1.17	1.07	0.738	0.84	0.81	0.859	0.559
NCI-H2087	0.822	1.06	0.851	0.257	0.235	0.967	1.11	0.978	0.78	0.259	–	0.888	0.864	0.641	0.302	0.865	0.924	0.795	0.196	0.165
COR-L23	0.831	0.799	0.586	0.188	0.129	0.865	1.05	0.976	0.704	0.324	0.962	0.937	0.804	0.693	0.342	0.516	0.495	0.262	0.0744	0.0882
NCI-H2126	0.961	1	1.03	0.758	0.714	0.977	1.05	0.63	0.859	0.441	1.19	1.09	0.801	1	0.659	0.758	0.789	0.808	0.6	0.552
LC-2-ad	0.756	0.726	0.549	0.262	0.192	0.974	1.07	0.837	0.718	0.261	0.9	1.08	0.977	0.742	0.209	0.699	0.66	0.307	0.126	0.106
NCI-H1915	0.739	0.74	0.489	0.287	0.165	1	1.1	0.891	0.889	0.684	0.963	0.969	0.992	0.906	0.516	0.896	0.888	0.68	0.325	0.167
NCI-H2023	0.698	0.68	0.517	0.21	0.142	0.868	1.02	0.599	0.465	0.148	0.975	1.15	0.456	0.46	0.123	0.403	0.536	0.325	0.149	0.101
COR-L 105	0.943	0.87	0.759	0.556	0.404	0.979	0.98	0.638	0.823	0.662	0.613	1.23	0.502	0.7	0.495	0.95	0.949	0.794	0.413	0.317
SK-LU-1	0.897	1.01	0.909	0.588	0.411	0.99	1.03	0.67	0.413	0.264	1.44	1.11	0.765	0.515	0.272	0.889	0.735	0.902	0.502	0.412
LXF-289	0.94	0.972	0.912	0.539	0.231	1.05	1.04	1.13	0.878	0.311	1.01	1.07	0.994	0.75	0.252	0.923	1.04	0.9	0.332	0.162
PC-3 [JPC-3]	1.01	1.01	0.939	0.73	0.535	1.03	1.1	1.07	0.989	0.837	0.795	0.756	0.93	0.775	0.67	0.847	0.993	0.905	0.655	0.506
NCI-H661	0.907	0.875	0.767	0.475	0.394	1.03	1.03	0.873	0.827	0.565	0.735	0.828	0.531	0.543	0.276	0.439	0.66	0.411	0.247	0.196
